Results reported in US6673794B2, “Substituted aminomethyl-phenyl-cyclohexane derivatives” (Gruenenthal GmbH, priority 2000, dated 2004).

Test system: Male NMRI mice
Experiment: phenylquinone-induced writhing test in mice
Assay type: in vivo
Details: Mus musculus, iv, 10 mg/kg i.v., 10 minutes before phenylquinone i.p., writhing counted 5-20 minutes after phenylquinone, read-out: % inhibition of the writhing reactions (10 mg/kg i.v.)
Method: The antinociceptive activity of the compounds according to the invention was investigated in mice in the phenylquinone-induced writhing test, modified by I.C. Hendershot, J. Forsaith, J. Pharmacol. Exp. Ther. 125, 237-240 (1959). Male NMRI mice weighing 25-30 g were used. Groups of 10 animals per substance dose received 0.3 ml/mouse of a 0.02% aqueous solution of phenylquinone (phenylbenzoquinone, Sigma, Deisenhofen; preparation of the solution with the addition of 5% ethanol and storage in a water bath at 45° C.) administered intraperitoneally 10 minutes after intravenous administration of a compound according to the invention. The animals were placed individually in observation cages. The number of pain-induced stretching movements (so-called writhing reactions, that is straightening of the body with stretching of the hind extremities) was counted by means of a push-button counter for 5-20 minutes after the administration of phenylquinone. Animals which received physiological saline solution i.v. and phenylquinone […]. were also run as a control.
All substances were tested in the standard dose of 10 mg/kg. The percentage inhibition (% inhibition) of the writhing reactions by a substance was calculated according to the following equation:
% inhibition=100−(WRtreated animals/WRcontrol×100)

How did the inhibition in vivo at 10 mg/kg turn out when `CN(C)CC1CC/C(=C/c2cccc(C(=O)O)c2)C=C1c1cccc(O)c1` (centres unmarked) [Compound 48, Z-3-[4-Dimethylaminomethyl-3-(3-hydroxy-phenyl)-cyclohex-2-enylidenemethyl]-benzoic acid] was run?
The inhibition in vivo at 10 mg/kg was 98%.

For `CCN(CC)C(=O)c1cccc(/C=C2\C=C(c3cccc(OC)c3)C(CN(C)C)CC2)c1` (centres unmarked) [Compound 34, Z-3-[4-Dimethylaminomethyl-3-(3-methoxy-phenyl)-cyclohex-2-enylidenemethyl]-N,N-diethyl-benzamide], which inhibition in vivo at 10 mg/kg is on record?
Its inhibition in vivo at 10 mg/kg is 78%.

How did the inhibition in vivo at 10 mg/kg turn out when `COc1cccc(C2=C/C(=C/c3cccc(C(=O)O)c3)CCC2CN(C)C)c1` (centres unmarked) [Compound 15, E-3-[4-Dimethylaminomethyl-3-(3-methoxy-phenyl)-cyclohex-2-enylidenemethyl]-benzoic acid] was run?
The inhibition in vivo at 10 mg/kg was 100%.

With `COc1cccc([C@@H]2C/C(=C\c3cccc(C(=O)O)c3)CC[C@H]2CN(C)C)c1` (racemic) [Compound 17, rac-trans-Z-3-[4-Dimethylaminomethyl-3-(3-methoxy-phenyl)-cyclohexylidenemethyl]-benzoic acid] as the compound, how does the inhibition in vivo at 10 mg/kg read?
Its inhibition in vivo at 10 mg/kg is 85%.

Which inhibition in vivo at 10 mg/kg does the source give for `COc1cccc([C@@H]2C/C(=C/c3cccc(C(=O)O)c3)CC[C@H]2CN(C)C)c1` (racemic) [Compound 18, rac-trans-E-3-[4-Dimethylaminomethyl-3-(3-methoxy-phenyl)-cyclohexylidenemethyl]-benzoic acid] here?
The inhibition in vivo at 10 mg/kg was 100%.

`CN(C)CC1=C(c2cccc(O)c2)C/C(=C\c2cccc(CO)c2)CC1` [Compound 24, Z-3-[2-dimethylaminomethyl-5-(3-hydroxymethyl-benzylidene)-cyclohex-1-enyl]-phenol] was tested. Which inhibition in vivo at 10 mg/kg did it give?
The inhibition in vivo at 10 mg/kg was 100%.

How did the inhibition in vivo at 10 mg/kg turn out when `COc1cccc(C2=C/C(=C/c3cccc(CO)c3)CCC2CN(C)C)c1` (centres unmarked) [Compound 16, E-{3-[4-dimethylaminomethyl-3-(3-methoxy-phenyl)-cyclohex-2-enylidenemethyl]-phenyl}-methanol] was run?
The inhibition in vivo at 10 mg/kg was 98%.

For `COC(=O)c1cccc(C=C2CCC(CN(C)C)C(c3cccc(OC)c3)C2)c1` (racemic) [Compound 8, rac-trans-E-3-[4-dimethylaminomethyl-3-(3-methoxy-phenyl)-cyclohexylidenemethyl]-benzoic acid methyl ester], which inhibition in vivo at 10 mg/kg is on record?
Its inhibition in vivo at 10 mg/kg is 98%.

With `COc1cccc(C2=C/C(=C\c3cccc(C(=O)O)c3)CCC2CN(C)C)c1` (centres unmarked) [Compound 14, Z-3-[4-Dimethylaminomethyl-3-(3-methoxy-phenyl)-cyclohex-2-enylidenemethyl]-benzoic acid] as the compound, how does the inhibition in vivo at 10 mg/kg read?
Its inhibition in vivo at 10 mg/kg is 94%.

`COc1cccc(C2=C/C(=C/c3cccc(C(=O)OC(C)(C)C)c3)CCC2CN(C)C)c1` (centres unmarked) [Compound 21, E-3-[4-Dimethylaminomethyl-3-(3-methoxy-phenyl)-cyclohex-2-enylidenemethyl]-benzoic acid tert-butyl ester] was tested. Which inhibition in vivo at 10 mg/kg did it give?
The inhibition in vivo at 10 mg/kg was 79%.

`CN(C)CC1CC/C(=C\c2cccc(CO)c2)C=C1c1cccc(O)c1` (centres unmarked) [Compound 22, E-3-[6-Dimethylaminomethyl-3-(3-hydroxymethyl-benzylidene)-cyclohex-1-enyl]-phenol] was tested. Which inhibition in vivo at 10 mg/kg did it give?
Its inhibition in vivo at 10 mg/kg is 93%.

For `CN(C)C[C@@H]1CC/C(=C\c2cccc(CO)c2)C[C@H]1c1cccc(O)c1` (racemic) [Compound 19, rac-trans-E-3-[2-dimethylaminomethyl-5-(3-hydroxymethyl-benzylidene)-cyclohexyl]-phenol], which inhibition in vivo at 10 mg/kg is on record?
Its inhibition in vivo at 10 mg/kg is 82%.

Which inhibition in vivo at 10 mg/kg does the source give for `CCOC(=O)c1cccc(/C=C2/C=C(c3cccc(OC)c3)C(CN(C)C)CC2)c1` (centres unmarked) [Compound 33, E-3-[4-Dimethylaminomethyl-3-(3-methoxy-phenyl)-cyclohex-2-enylidenemethyl]-benzoic acid ethyl ester] here?
The inhibition in vivo at 10 mg/kg was 90%.

`COc1cccc(C2=C/C(=C\c3cccc(C(=O)OCC(C)C)c3)CCC2CN(C)C)c1` (centres unmarked) [Compound 39, Z-3-[4-Dimethylaminomethyl-3-(3-methoxy-phenyl)-cyclohex-2-enylidenemethyl]-benzoic acid isobutyl ester] was tested. Which inhibition in vivo at 10 mg/kg did it give?
The inhibition in vivo at 10 mg/kg was 78%.

With `CN(C)C[C@@H]1CC/C(=C/c2ccccc2)C[C@H]1c1cccc(O)c1` (racemic) [Compound 23, rac-trans-Z-3-(5-Benzylidene-2-dimethylaminomethyl-cyclohexyl)-phenol] as the compound, how does the inhibition in vivo at 10 mg/kg read?
The inhibition in vivo at 10 mg/kg was 88%.

`COc1cccc(C2=C/C(=C\c3cccc(CO)c3)CCC2CN(C)C)c1` (centres unmarked) [Compound 25, Z-{3-[4-Dimethylaminomethyl-3-(3-methoxy-phenyl)-cyclohex-2-enylidenemethyl]-phenyl}-methanol] was tested. Which inhibition in vivo at 10 mg/kg did it give?
Its inhibition in vivo at 10 mg/kg is 100%.

Which inhibition in vivo at 10 mg/kg does the source give for `CCOC(=O)c1cccc(/C=C2/CC[C@H](CN(C)C)[C@H](c3cccc(OC)c3)C2)c1` (racemic) [Compound 30, rac-cis-Z-3-[4-Dimethylaminomethyl-3-(3-methoxy-phenyl)-cyclohexylidenemethyl]-benzoic acid ethyl ester] here?
The inhibition in vivo at 10 mg/kg was 84%.

For `CCN(CC)C(=O)c1cccc(/C=C2\CCC(CN(C)C)C(c3cccc(OC)c3)C2)c1` (racemic) [Compound 32], which inhibition in vivo at 10 mg/kg is on record?
Its inhibition in vivo at 10 mg/kg is 100%.

For `COC(=O)c1cccc(/C=C2/C=C(c3cccc(O)c3)C(CN(C)C)CC2)c1` (centres unmarked) [Compound 37, E-3-[4-dimethylaminomethyl-3-(3-hydroxy-phenyl)-cyclohex-2-enylidenemethyl]-benzoic acid methyl ester], which inhibition in vivo at 10 mg/kg is on record?
The inhibition in vivo at 10 mg/kg was 91%.

For `CCN(CC)C(=O)c1cccc(/C=C2/CC[C@@H](CN(C)C)[C@H](c3cccc(OC)c3)C2)c1` (racemic) [Compound 36, rac-trans-Z-3-[4-Dimethylaminomethyl-3-(3-methoxy-phenyl)-cyclohexylidenemethyl]-N,N-diethyl-benzamide], which inhibition in vivo at 10 mg/kg is on record?
Its inhibition in vivo at 10 mg/kg is 100%.

For `CN(C)C[C@@H]1CC/C(=C\c2ccccc2)C[C@H]1c1cccc(O)c1` (racemic) [Compound 20, rac-trans-E-3-(5-benzylidene-2-dimethylaminomethyl-cyclohexyl)-phenol], which inhibition in vivo at 10 mg/kg is on record?
Its inhibition in vivo at 10 mg/kg is 84%.

Same assay, conditions: mouse writhing test, 10 minutes before phenylquinone i.p., writhing counted 5-20 minutes after phenylquinone

Which “% inhibition of the writhing reactions (10 mg/kg i.v.)” value does the source give for `COc1cccc([C@@H]2C/C(=C/c3cccc(C(=O)O)c3)CC[C@@H]2CN(C)C)c1.Cl` (racemic) [Compound 26, rac-cis-E-3-[4-Dimethylaminomethyl-3-(3-methoxy-phenyl)-cyclohexylidenemethyl]-benzoic acid] here?
The value was 87%.

`CCN(CC)C(=O)c1cccc(/C=C2\CC[C@H](CN(C)C)[C@H](c3cccc(OC)c3)C2)c1.Cl` (racemic) [Compound 35, rac-cis-E-3-[4-Dimethylaminomethyl-3-(3-methoxy-phenyl)-cyclohexylidenemethyl]-N,N-diethyl-benzamide] was tested. Which “% inhibition of the writhing reactions (10 mg/kg i.v.)” value did it give?
Its value is 100%.
